2 compounds from publication PMC7125101, “Molecular bases for HOIPINs-mediated inhibition of LUBAC and innate immune responses” (Communications Biology, 2020) can be followed below.

Each structure is given as a SMILES string. Where a name gives a salt, the structure may show the parent alone. Read-outs that look alike come from different tables or passages of the source.

By IC50 is commonly meant the midpoint of a concentration-inhibition curve.

In experiment [1] the test system is HEK293T. The experiment is described as follows: cells. The arrangement: species or system human tumour lines, mouse MEF; Cell viability after 72 h, CellTiter-Glo luminescent assay. The conditions noted are these: Homo sapiens, HEK-293T, 72 h. An excerpt:
Importantly, the polymorphisms in HOIP are closely associated with ABC-DLBCL[23]. […] Therefore, we investigated the effect of HOIPINs on B cell lymphoma cells. […] In ABC-DLBCL cell lines, the phosphorylation of p105 and p65 and the expression of NF-κB target genes were suppressed by HOIPINs (Fig. 6d, e). Moreover, the phosphorylation of IκBα was decreased concomitantly with the reduced intracellular amounts of linear polyubiquitin in HOIPIN-1-treated HBL1 cells (an ABC-DLBCL cell line), but not in BJAB cells (a GCB-DLBCL cell line) (Fig. 6f). […] GCB-DLBCL cells (BJAB, SU-DHL-4, and HT) and ABC-DLBCL cells (TK, DLBCL2, and OYB) were cultured in the presence of DMSO or 10 μM HOIPIN-1. Taking the cell viabilities in the presence of DMSO as 100%, the relative cell viabilities of respective cell line in the presence of HOIPIN-1 were assessed by a CellTiter-Glo luminescent cell viability assay. b HOIPIN-8 enhanced the cell death of ABC-DLBCL cells than HOIPIN-1. DLBCL2 cells or BJAB cells were treated with DMSO, 10 μM HOIPIN-1, or 10 μM HOIPIN-8 for the indicated period, and the relative cell viabilities were assessed as in a. c Caspase activation in ABC-DLBCL cells by HOIPIN-8. […] Cells were treated and analyzed as in c. e HOIPIN-1 suppresses the expression of NF-κB target genes in ABC-DLBCL cells. […]

For experiment [2], the system named is T1, cpdm MEF.
T1 construct: cpdm (Sharpin-deficient)
The experiment is described as follows: cells. The arrangement: species or system human tumour lines, HEK293T, mouse MEF; Cell viability after 72 h, CellTiter-Glo luminescent assay. The conditions noted are these: 72 h. The text has this:
(§1) Importantly, the polymorphisms in HOIP are closely associated with ABC-DLBCL[23]. […] Therefore, we investigated the effect of HOIPINs on B cell lymphoma cells. […] In ABC-DLBCL cell lines, the phosphorylation of p105 and p65 and the expression of NF-κB target genes were suppressed by HOIPINs (Fig. 6d, e). Moreover, the phosphorylation of IκBα was decreased concomitantly with the reduced intracellular amounts of linear polyubiquitin in HOIPIN-1-treated HBL1 cells (an ABC-DLBCL cell line), but not in BJAB cells (a GCB-DLBCL cell line) (Fig. 6f). […] GCB-DLBCL cells (BJAB, SU-DHL-4, and HT) and ABC-DLBCL cells (TK, DLBCL2, and OYB) were cultured in the presence of DMSO or 10 μM HOIPIN-1. Taking the cell viabilities in the presence of DMSO as 100%, the relative cell viabilities of respective cell line in the presence of HOIPIN-1 were assessed by a CellTiter-Glo luminescent cell viability assay. b HOIPIN-8 enhanced the cell death of ABC-DLBCL cells than HOIPIN-1. DLBCL2 cells or BJAB cells were treated with DMSO, 10 μM HOIPIN-1, or 10 μM HOIPIN-8 for the indicated period, and the relative cell viabilities were assessed as in a. c Caspase activation in ABC-DLBCL cells by HOIPIN-8. Cells were treated with or without 10 μM HOIPIN-8 for 24 h, and cell lysates were immunoblotted with the indicated antibodies. d Reduced NF-κB activation in ABC-DLBCL cells by HOIPIN-8. Cells were treated and analyzed as in c. e HOIPIN-1 suppresses the expression of NF-κB target genes in ABC-DLBCL cells. Cells were treated with 10 μM HOIPIN-1 for 24 h, and qPCR analyses were performed. f Intracellular linear ubiquitin and IκBα phosphorylation in ABC-DLBCL cells are diminished by HOIPIN-1. HBL1 and BJAB cells were treated with 10 μM HOIPIN-1 for the indicated period, and cell lysates were immunoblotted with the indicated antibodies. g HOIPIN-8 has potent inhibitory effects on NF-κB activation and linear ubiquitination in ABC-DLBCL cells than those in HOIPIN-1. HBL1 cells were treated with the indicated concentrations of HOIPIN-1 or -8 for 24 h, and cell lysates were immunoblotted with the indicated antibodies. In b, e, data are shown as mean ± SEM, NS not significant, *P < 0.05, **P < 0.01, ***P < 0.001, ****P < 0.0001, by one-way ANOVA with Tukey’s post hoc test. A549, HEK293T, HeLa (ATCC), optineurin-deficient HeLa[31], HOIP-deficient HeLa, C885A mutant of HOIP-restored HeLa, wild-type MEF, and Sharpin-deficient cpdm MEF cells were cultured in DMEM containing 10% fetal bovine serum, 100 IU/ml penicillin G, and 100 μg/ml streptomycin. […]

In experiment [3] the test system is WT-MEF. The experiment is described as follows: cells. The conditions noted are these: 72 h. The arrangement: species or system human tumour lines, HEK293T, mouse MEF; Cell viability after 72 h, CellTiter-Glo luminescent assay.
Source text: as §1

Experiment [4] addresses T2, HOIP (Homo sapiens, UniProt Q96EP0).
T2 construct: gene RNF31; RING2-LDD domain, residues 853–1072
The experiment is described as follows: X-ray crystal structure at […] Å; also MALDI-TOF intact mass adduct (+[…]) on petit-LUBAC and inhibition of HOIP~ubiquitin thioester formation. It is filed as binding.

Experiment [5] relates to A549. The experiment is described as follows: cells. The arrangement: species or system human tumour lines, HEK293T, mouse MEF; Cell viability after 72 h, CellTiter-Glo luminescent assay. The conditions noted are these: Homo sapiens, A549, 72 h.
The test system of experiment [6] is HeLa. The experiment is described as follows: cells. The arrangement: species or system human tumour lines, HEK293T, mouse MEF; Cell viability after 72 h, CellTiter-Glo luminescent assay. The conditions noted are these: Homo sapiens, HeLa, 72 h.
Experiment [7] has as its system Jurkat. The experiment is described as follows: cells. The arrangement: species or system human tumour lines, HEK293T, mouse MEF; Cell viability after 72 h, CellTiter-Glo luminescent assay. The conditions noted are these: Homo sapiens, Jurkat, 72 h.
The test system of experiment [8] is KM-H2. The experiment is described as follows: cells. Also noted: species or system human tumour lines, HEK293T, mouse MEF; Cell viability after 72 h, CellTiter-Glo luminescent assay. The note with it: Homo sapiens, KM-H2, 72 h.
In experiment [9] the test system is SU-DHL-4. The experiment is described as follows: cells. The arrangement: species or system human tumour lines, HEK293T, mouse MEF; Cell viability after 72 h, CellTiter-Glo luminescent assay. The conditions noted are these: Homo sapiens, SU-DHL-4, 72 h.
Experiment [10] relates to OYB. The experiment is described as follows: cells. The arrangement: species or system human tumour lines, HEK293T, mouse MEF; Cell viability after 72 h, CellTiter-Glo luminescent assay. The conditions noted are these: Homo sapiens, HEK-293T, 72 h.
Experiment [11] concerns DLBCL2. The experiment is described as follows: cells. The arrangement: species or system human tumour lines, HEK293T, mouse MEF; Cell viability after 72 h, CellTiter-Glo luminescent assay. The note with it: Homo sapiens, HEK-293T, 72 h; read-out: HOIPIN-1 (IC50).
Experiment [12] relates to BJAB. The experiment is described as follows: cells. Also noted: species or system human tumour lines, HEK293T, mouse MEF; Cell viability after 72 h, CellTiter-Glo luminescent assay. The note with it: Homo sapiens, BJAB, 72 h.
Experiment [13] concerns TK. The experiment is described as follows: cells. The note with it: Homo sapiens, HEK-293T, 72 h. Also noted: species or system human tumour lines, HEK293T, mouse MEF; Cell viability after 72 h, CellTiter-Glo luminescent assay.
The test system of experiment [14] is Karpas1160P. The experiment is described as follows: cells. The arrangement: species or system human tumour lines, HEK293T, mouse MEF; Cell viability after 72 h, CellTiter-Glo luminescent assay. The conditions noted are these: Homo sapiens, HEK-293T, 72 h.
Experiment [15] deals with HBL1. The experiment is described as follows: cells. The arrangement: species or system human tumour lines, HEK293T, mouse MEF; Cell viability after 72 h, CellTiter-Glo luminescent assay. The note with it: HBL1, 72 h.
The test system of experiment [16] is HT. The experiment is described as follows: cells. Also noted: species or system human tumour lines, HEK293T, mouse MEF; Cell viability after 72 h, CellTiter-Glo luminescent assay. The conditions noted are these: Homo sapiens, HT, 72 h.

Consider `COc1ccccc1C(=O)/C=C/c1ccccc1C(=O)O` [HOIPIN-1, 2-[(1E)-3-(2-methoxyphenyl)-3-oxoprop-1-en-1yl] benzoic acid sodium salt], for which the IC50 in experiment [1] (read-out: HOIPIN-1 (IC50)) is 40.3 µM; in [2] (read-out: HOIPIN-1 (IC50)), greater than 100 µM; in [3] (read-out: HOIPIN-1 (IC50)), greater than 100 µM; in experiment [5] (read-out: HOIPIN-1 (IC50)), greater than 100 µM; in experiment [6] (read-out: HOIPIN-1 (IC50)) it was 33.7 µM; in experiment [7] (read-out: HOIPIN-1 (IC50)), 20.6 µM. The IC50 in experiment [8] (read-out: HOIPIN-1 (IC50)) stood at 9.6 µM; in experiment [9] (read-out: HOIPIN-1 (IC50)), 46.9 µM; in experiment [10] (read-out: HOIPIN-1 (IC50)) it was 16 µM; in [11], 11.1 µM; in experiment [12] (read-out: HOIPIN-1 (IC50)) it was 52.2 µM; in [13] (read-out: HOIPIN-1 (IC50)) it was 9.7 µM. Also, the IC50 in experiment [14] (read-out: HOIPIN-1 (IC50)) came to 11 µM; in experiment [15] (read-out: HOIPIN-1 (IC50)), 16.4 µM; in experiment [16] (read-out: HOIPIN-1 (IC50)) it was 48.2 µM. Besides, the “X-ray crystal structure at 1.54 Å; also MALDI-TOF intact mass adduct (+263) on p” value in experiment [4] is given as “HOIPINs are covalently attached to the catalytic Cys885 of HOIP via Michael addition”.
For `Cn1cc(-c2ccc(C(=O)O)c(/C=C/C(=O)c3c(F)cc(-c4cn[nH]c4)cc3F)c2)cn1` [HOIPIN-8, 2-{(E)-3-[2,6-difluoro-4-(1H-pyrazol-4-yl)-phenyl]-3-oxo-propenyl}-4-(1-methyl-1H-pyraol-4-yl)-benzoic acid sodium salt], the IC50 in experiment [1] (read-out: HOIPIN-8 (IC50)) is 70.3 µM; in [2] (read-out: HOIPIN-8 (IC50)), 51.8 µM; in [3] (read-out: HOIPIN-8 (IC50)) it was 49.7 µM; in [5] (read-out: HOIPIN-8 (IC50)), greater than 100 µM; in experiment [6] (read-out: HOIPIN-8 (IC50)), greater than 100 µM; in experiment [7] (read-out: HOIPIN-8 (IC50)) it was greater than 100 µM. Besides, the IC50 was 40.7 µM in experiment [8] (read-out: HOIPIN-8 (IC50)); greater than 30 µM in experiment [9] (read-out: HOIPIN-8 (IC50)); 14.4 µM in experiment [10] (read-out: HOIPIN-8 (IC50)); greater than 30 µM in experiment [12] (read-out: HOIPIN-8 (IC50)); 3.7 µM in experiment [13] (read-out: HOIPIN-8 (IC50)); 27.6 µM in [14] (read-out: HOIPIN-8 (IC50)). Moreover, the values for the IC50 in [15] (read-out: HOIPIN-8 (IC50)) and in experiment [16] (read-out: HOIPIN-8 (IC50)) were 16.7 µM and greater than 30 µM, respectively.
